For assay [1], the system named is MCP-1 secretion from human aortic endothelial cells (HAEC). In words: Secretion of MCP-1 from TNF-α stimulated human aortic endothelial cells (ELISA). In kind it is cell-based. To be noted: test agent 0.03 to 30 μM, TNF-α 10 ng/mL for 4 hours, FIG. 2. As for the experimental part: An effect on the secretion of MCP-1 from vascular endothelial cells was investigated using human aortic endothelial cells (available from Clonetics Corp., USA, and hereienafter abbreviated as “HAEC”). In usual, the HAEC cells were cultured in EGM-2 medium (Clonetics) containing 2% FBS (Clonetics) in a CO2 incubator (5% CO2, 37° C.). On the first day, the HAEC cells suspended in EGM-2 medium containing 2% FBS were seeded in 96-well plates at 1×10^5 cells/well and then cultured. On the second day, after the cells were washed with PBS, the culture medium was replaced with 200 μL of EGM-2 medium containing 0.4% FBS and the test agent at various concentrations (0.03 to 30 μM) (final DMSO concentration: 0.1%) to culture the cells for 24 hours. On the third day, after the cells were washed with PBS, the culture medium was replaced with 200 μL of EGM-2 medium containing 0.4% FBS, TNF-α (10 ng/mL), and the test agent at various concentrations (0.03 to 30 μM) (final DMSO concentration: 0.1%) to stimulate the cells for 4 hours. After stimulation with TNF-α, the culture medium was collected to measure the MCP-1 concentration of the culture medium by the use of a human MCP-1 ELISA kit (Biosource).

Assay [2] relates to VCAM-1 expression in human aortic endothelial cells (HAEC). Put plainly: Expression of VCAM-1 in TNF-α stimulated human aortic endothelial cells (cell ELISA). It counts as cell-based. To be noted: test agent 0.03 to 30 μM, TNF-α 10 ng/mL for 4 hours, FIG. 1. How it is done: An effect on the expression of adhesion molecules in vascular endothelial cells was investigated using human aortic endothelial cells (available from Clonetics Corp., USA, and hereinafter abbreviated as “HAEC”). In usual, the HAEC cells were cultured in EGM-2 medium (Clonetics) containing 2% FBS (Clonetics) in a CO2 incubator (5% CO2, 37° C.). On the first day, the HAEC cells suspended in EGM-2 medium containing 2% FBS were seeded in 96-well plates at 1×10^5 cells/well and then cultured. On the second day, after the cells were washed with PBS, the culture medium was replaced with 200 μL of EGM-2 medium containing 0.4% FBS and the test agent at various concentrations (0.03 to 30 μM) (final DMSO concentration: 0.1%) to culture the cells for 24 hours. On the third day, after the cells were washed with PBS, the culture medium was replaced with 200 μL of EGM-2 medium containing 0.4% FBS, TNF-α (10 ng/mL) and the test agent at various concentrations (0.03 to 30 μM) (final DMSO concentration: 0.1%) to stimulate the cells for 4 hours. After stimulation with TNF-α, the cells were washed with PBS, and then the amount of VCAM-1 expressed was evaluated according to the following cell ELISA method using an anti-human VCAM-1 antibody solution (PharMingen). Namely, the cells were fixed and blocked using paraformaldehyde, and then 200 μL of the anti-human VCAM-1 antibody solution (PharMingen) was added as a primary antibody to induce a primary antibody response for overnight incubation. Next day, 200 μL of HRP-labeled anti-Mouse IgG (γ+L) Goat F (Ab7)2 was added as a secondary antibody to induce a secondary antibody response for 4 hours, and then a substrate solution (ortho-phenylenediamine and hydrogen peroxide) was added. After reaction, the absorbance was measured using a microplate spectrophotometer, and the obtained absorbance was used as an index of the amount of VCAM-1 expressed.

The next assay addresses T1, human PPARγ (Homo sapiens, UniProt P37231).
T1 construct: expressed in transfected cells; host or cells: 293 T cells
T1 sequence (P37231 238-503 limits assumed): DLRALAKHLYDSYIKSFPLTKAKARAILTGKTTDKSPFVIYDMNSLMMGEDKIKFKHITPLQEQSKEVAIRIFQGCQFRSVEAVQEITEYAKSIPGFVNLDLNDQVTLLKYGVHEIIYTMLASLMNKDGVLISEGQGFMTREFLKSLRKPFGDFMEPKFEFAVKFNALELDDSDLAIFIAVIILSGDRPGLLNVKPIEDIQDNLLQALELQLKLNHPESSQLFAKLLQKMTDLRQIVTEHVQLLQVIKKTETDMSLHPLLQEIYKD
Put plainly: PPARγ transcription activation, Gal4-hPPARγ (LBD)/Gal4-Luc reporter in 293 T cells. It counts as cell-based. To be noted: Gal4-hPPARγ (LBD) luciferase reporter, 32 hours exposure, 0.03 to 30 μM, read-out: EC50 values of PPARs transcription activation effect, PPARγ.

In the next assay the target is T2, human PPARδ (Homo sapiens, UniProt Q03181).
T2 construct: expressed in transfected cells; host or cells: 293 T cells
T2 sequence (Q03181 211-439 limits assumed): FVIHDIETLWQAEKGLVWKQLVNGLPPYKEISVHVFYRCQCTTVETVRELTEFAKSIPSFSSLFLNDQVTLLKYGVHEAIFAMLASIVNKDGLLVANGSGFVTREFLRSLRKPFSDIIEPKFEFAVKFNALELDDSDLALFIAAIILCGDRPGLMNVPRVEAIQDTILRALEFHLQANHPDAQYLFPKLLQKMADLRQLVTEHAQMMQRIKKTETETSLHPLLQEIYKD
In words: PPARδ transcription activation, Gal4-hPPARδ (LBD)/Gal4-Luc reporter in 293 T cells. In kind it is cell-based. To be noted: Gal4-hPPARδ (LBD) luciferase reporter, 32 hours exposure, 0.03 to 30 μM, read-out: EC50 values of PPARs transcription activation effect, PPARδ. How it is done:
(§1) On the second day, a transfection mixture, which contained with 9 μL of TransIT-LT1 (Takara), 2 μg of the Gal4-hPPARα (LBD) vector, the Gal4-hPPARγ (LBD) vector or the Gal4-hPPARδ (LBD) vector, 1 μg of the Gal4-Luc and 200 μL of DMEM (without FBS), was gently added to the cells at 200 μL per well. The cells were cultured all day and night to carry out gene introduction to the cells. For the investigation of the specificity of the effect on the introduced PPAR genes, gene introduction was carried out in the same manner described above using a vector without PPAR ligand-binding domain (hereinafter abbreviated as a “Gal4-control vector”). On the third day, the cells in 3 wells of the 6-well plates were combined to adjust the concentration of cells to 3×10^5 cells/mL, and the obtained one was dispensed in 96-well plates at 100 μL/well to culture the cells. On the fourth day, the culture medium was replaced with 50 μL of the DMEM (+) containing the test compound at various concentrations (0.03 to 30 μM) (final DMSO concentration: 0.1%) to culture the cells. After the cells were exposed to the compound for 32 hours, 50 μL of Luc-Screen (Applied Biosystems) was added. 70 μL of the reaction solution in each well was moved to white plates to measure luminescence emitted due to the reaction of luciferase by the use of a Microplate Luminometer (EG & G berthold, LB96P).

For the next assay, the target named is T3, human PPARα (Homo sapiens, UniProt Q07869).
T3 sequence (Q07869 239-466 limits assumed): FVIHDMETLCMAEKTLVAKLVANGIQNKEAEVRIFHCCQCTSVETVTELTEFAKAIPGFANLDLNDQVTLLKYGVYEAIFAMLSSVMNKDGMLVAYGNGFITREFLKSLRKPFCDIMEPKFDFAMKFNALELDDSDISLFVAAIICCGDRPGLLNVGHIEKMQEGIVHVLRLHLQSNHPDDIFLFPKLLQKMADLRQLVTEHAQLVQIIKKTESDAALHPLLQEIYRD
Put plainly: cell-based. How it is done: as §1

The values that follow come from patent publication US20040198774A1, “Preventive and/or remedial agent for disease attributable to arteriosclerotic activity” (priority 2001, published 2004).

Each structure is given as a SMILES string.

Regarding `CC(C)OC(=O)C(C)(C)Oc1ccc(C(=O)c2ccc(Cl)cc2)cc1` [Fenofibrate], the “effect on the secretion of MCP-1 induced by stimulation with TNF-α” value (from here on “effect on the secretion of MCP-1 induced”) in assay [1] is “no effect”.

For `Cc1cc(SCc2sc(-c3ccc(C(F)(F)F)cc3)nc2C)ccc1OCC(=O)O` [GW501516], in assay [2], the “effect on the expression of VCAM-1 induced by stimulation with TNF-α” value (shortened to “effect on the expression”) is reported as “suppressed”. Moreover, the “effect on the secretion of MCP-1 induced” value in assay [1] is reported as “suppressed”.

With `O=C1NC(=O)C(Cc2ccc3cc(OCc4ccccc4F)ccc3c2)S1` (stereo not drawn) [MCC-555, 5-[6-(2-fluorobenzyloxy)-2-naphthyl]-methyl-thiazolidine-2,4-dione], the values for the EC50 on human PPARγ, at human PPARδ and at human PPARα were 6.2 µM, 1.2 µM and 1 µM, respectively.

On to `CCc1ccc(CCOc2ccc(CC3SC(=O)NC3=O)cc2)nc1` (stereo not drawn) [Pioglitazone], for which, in assay [2], the “effect on the expression” value is reported as “no effect”. Also, in assay [1], the “effect on the secretion of MCP-1 induced” value is on record as “no effect”.

As to `CN(CCOc1ccc(CC2SC(=O)NC2=O)cc1)c1ccccn1` (stereo not drawn) [Rosiglitazone], the “effect on the expression” value in assay [2] is “no effect”. Further, in assay [1], the “effect on the secretion of MCP-1 induced” value was “no effect”.

Consider `Cc1cccc(Nc2cc(Cl)nc(SCC(=O)O)n2)c1C` [Wy-14643], for which the “effect on the expression” value in assay [2] is given as “suppressed”. For the same compound, the “effect on the secretion of MCP-1 induced” value in assay [1] is recorded as “no effect”.
